Results: PubChem BioAssay (NCI)
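Compound exposure: 48 hours, 5 concentrations, 96-well plates. TGI: concentration producing complete growth inhibition.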

What was measured:
Assay in all cases: NCI tumour cell line growth inhibition, 48 h
CAKI-1 renal = system: CAKI-1 renal
CCRF-CEM leukemia = system: CCRF-CEM leukemia
DU-145 prostate = system: DU-145 prostate
EKVX NSCLC = system: EKVX NSCLC
HS 578T breast = system: HS 578T breast
HT29 colon = system: HT29 colon
LOX IMVI melanoma = system: LOX IMVI melanoma
M14 melanoma = system: M14 melanoma
NCI/ADR-RES ovarian = system: NCI/ADR-RES ovarian
OVCAR-8 ovarian = system: OVCAR-8 ovarian
PC-3 prostate = system: PC-3 prostate
SF-295 CNS = system: SF-295 CNS
SK-MEL-28 melanoma = system: SK-MEL-28 melanoma

Measured: TGI

COC(=O)c1ccc(S)c(S(=O)(=O)Nc2n[nH]c(N)n2)c1
> 100 µM: CAKI-1 renal | CCRF-CEM leukemia | DU-145 prostate | EKVX NSCLC | HS 578T breast | HT29 colon | LOX IMVI melanoma | M14 melanoma | NCI/ADR-RES ovarian | OVCAR-8 ovarian | PC-3 prostate | SF-295 CNS | SK-MEL-28 melanoma
